From the METLIN SMRT retention time set (Domingo-Almenara et al. 2019)

Experiment: gradient 5% acetonitrile 3 min, to 50% in 2 min, to 85% in 15 min, held 3 min, 100 µL/min
Details: column: Zorbax Extend-C18 2.1 x 50 mm; eluents: water / acetonitrile, 0.1% formic acid
In short: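 In both positive and negative ionization mode, a quadrupole time-of-flight mass spectrometer coupled to HPLC analyzed pure standards run in mixtures of ~100 molecules. The Zorbax Extend-C18 column (2.1 × 50 mm, 1.8 μm) was operated at 100 μL/min with water and acetonitrile, each containing 0.1% formic acid. The dead volume was 40 μL and the dwell volume 900 μL. Retention time came from adduct peaks that were computationally picked and individually inspected by hand.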

Row | RP-LC retention time [s] | Structure (SMILES)
1 | 912 | CCOc1ccc(-c2nc(C3CC(=O)N(c4ccc(OC)c(OC)c4)C3)no2)cc1 (stereo unspecified)
2 | 776 | CCCn1nc(CNC(=O)c2sc(C)nc2C)c2ccccc21
3 | 607 | CO[C@H]1C(=O)N(C(C)C)[C@H]1C1CCN(C(=O)CN2C(=O)CCC2=O)CC1
4 | 648 | COc1ccc(Br)c(C(=O)N2CCc3[nH]cnc3C23CCCC3)c1
5 | 1260 | COc1ccc2c(c1)C(C(=O)N(Cc1ccc(N(C)C)cc1)c1ccc(C(C)C)cc1)CCC2 (stereo unspecified)
6 | 1200 | CCOc1ccc(-c2nc(-c3ccc4c(c3)N(CC)C(=O)CO4)no2)cc1OCC
7 | 864 | O=C(Cn1cnc2nc3c(cc2c1=O)CCCC3)NCCCN1CCc2ccccc2C1
8 | 1130 | CCCCCn1c(=O)c2ccccc2n(Cc2nc(-c3cccc(OC)c3)no2)c1=O
9 | 765 | Cn1c(=O)c(N2CCN(S(=O)(=O)c3ccc4c(c3)CCCC4)CC2)nc2ccncc21
10 | 1070 | O=C(Cn1cnc2c(sc3nc(-c4ccccc4)ccc32)c1=O)NCc1ccc(Cl)cc1
11 | 654 | COc1ccc2ncc(S(=O)(=O)c3ccc(C)c(C)c3)c(N3CCN(C)CC3)c2c1
12 | 1040 | CCCn1c(=O)c(C)nc2cc(-c3noc(COc4ccc(OC)cc4)n3)ccc21
13 | 797 | CCOC(=O)Cc1csc(NC(=O)c2cc(=O)c(OCc3ccccc3)c[nH]2)n1
14 | 724 | O=C(CCCc1ccccc1)Nc1ccc2c(c1)CCC(=O)N2
15 | 806 | O=C(NC(Cc1ccccc1)c1nnc(N2CCSCC2)o1)C1CCCC1 (stereo unspecified)
16 | 953 | Cc1ccc(-c2nc(C)cc3nn(CC(=O)Nc4cccc(Br)c4)c(=O)n23)cc1
17 | 800 | CCOC(=O)c1[nH]c(C)c(C(=O)CN(CC2CCCO2)C(=O)c2ccc(F)cc2)c1C (stereo unspecified)
18 | 766 | COc1ccc(S(=O)(=O)NC2CCN(C(=O)Cc3c[nH]c4ccccc34)CC2)cc1
19 | 814 | CCCn1ccc2oc(C)c(C(=O)NCc3ccc(Cl)cc3)c2c1=O
20 | 549 | Nc1ncnc2c1nc(Br)n2C1O[C@H]2COP(=O)(O)O[C@@H]2[C@@H]1O (stereo partly specified)
21 | 748 | COc1ccc(-c2nc(C(=O)N3CCN(C)CC3)sc2-c2ccc(OC)cc2)cc1
22 | 795 | CN1C(=O)c2cc(C(=O)NCCc3ccccc3)nn2CC1(C)C(=O)NC1CCCCCC1 (stereo unspecified)

Row | RP-LC retention time [s] | Structure (SMILES)
23 | 710 | Cc1ccc(NC(=O)Nc2ccc3nnc(C)n3c2)cc1F
24 | 761 | Cc1ccc(S(=O)(=O)NC2CCN(C(=O)C3CCC3)CC2)cc1
25 | 861 | CCOC(=O)c1ccc(N2C=C(C(=O)OC)S(=O)(=O)c3cc(F)ccc32)cc1
26 | 668 | Cc1ccc(S(=O)(=O)Nc2cc(-c3cn4ccccc4n3)ccc2C)cc1
27 | 628 | Cc1nn(-c2ccccc2)c2c1N(CCCC(=O)NCc1ccc(N(C)C)cc1)C(=O)CS2
28 | 672 | Cc1ccccc1CNC(=O)Cn1c(=O)c2nnc(C)n2c2ncccc21
29 | 1070 | N#Cc1ccc(C(=O)Nc2cnc(-c3ccc(Cl)cc3)nc2)cc1
30 | 1070 | Cc1ccc(CC(=O)N2CCc3cc(-c4csc(C)n4)ccc32)cc1
31 | 892 | O=C(CN1C(=O)CN(C(=O)NCc2ccccc2)c2ccccc21)NC1CCCc2ccccc21 (stereo unspecified)
32 | 662 | COCCN1CCn2cc(S(=O)(=O)Nc3ccc(OC)cc3)cc2C1=O
33 | 822 | Cc1nn(CC(=O)NC2CCCCCC2)c(=O)c2nn(-c3ccccc3)c(C)c12
34 | 794 | Cn1cnc(S(=O)(=O)N2CC(Oc3ccccc3-c3nc(C4CC4)no3)C2)c1
35 | 885 | CCOC(=O)CC1(NC(=O)NCC(=O)N2CCc3ccccc32)CCCCC1
36 | 579 | Nc1nc(Nc2ccccc2)nc2c1ncn2[C@@H]1O[C@H](CO)[C@H](O)C1O (stereo partly specified)
37 | 722 | COc1ccc(Cl)cc1NC(=O)Cn1ccc2c(=O)n(C)c(=O)n(C)c21
38 | 843 | Cc1ccc(Nc2c(-c3cccc(O)c3)nc3cnccn23)c(Br)c1
39 | 718 | Cn1nc(C(=O)N2CCCC2)c2c1CCN(C(=O)Nc1ccc(F)cc1F)C2
40 | 1110 | O=C1CC(c2noc(-c3cc(F)cc(F)c3)n2)CN1c1ccc(F)c(Cl)c1 (stereo unspecified)
41 | 628 | O=C(CCN(CC1CCCO1)C(=O)c1ccc(C(F)(F)F)cc1)N1CCNCC1 (stereo unspecified)
42 | 840 | CCC(=O)Nc1ccc(OCc2cc(C(=O)NC3CCCCC3)no2)cc1
43 | 725 | COC(=O)c1sc2cccc(F)c2c1S(=O)(=O)N1CCN(c2ccccn2)CC1
44 | 750 | COc1ccc(C2(C(=O)N3CCCOCCNC(=O)[C@@H]4CCCC[C@@H]43)CC2)cc1

Row | RP-LC retention time [s] | Structure (SMILES)
45 | 856 | CCCN(C(=O)Nc1cc(C)cc(C)c1)c1nc(-c2ccc(C3CCCCC3)cc2)cs1
46 | 922 | COCCNc1c(-c2ccccc2)nc2sc(C(=O)N3CCCC3)c(C)n12
47 | 1130 | COc1ccccc1-c1noc(Cn2ncn3nc(-c4ccc(C)cc4C)cc3c2=O)n1
48 | 582 | O=C(CCn1cccn1)N1CCCn2ccnc2C1C1CCCC1 (stereo unspecified)
49 | 866 | NC(=O)c1c(NC(=O)C2CCCN(C(=O)C3CCCC3)C2)sc2c1CCCC2 (stereo unspecified)
50 | 791 | O=C(COc1ccccc1F)Nc1ccc(Cl)c(N2CCCS2(=O)=O)c1
51 | 676 | CCNC(=O)C1CCCN(c2nc3ncn(CC(=O)Nc4cccc(F)c4)c(=O)c3s2)C1 (stereo unspecified)
52 | 740 | CN(CCC#N)c1ccc(NC(=O)c2ccc(Br)cc2)cc1C(=O)O
53 | 976 | O=C(NCCCc1ccccc1)C1CCN(c2ncnc3c2oc2ccccc23)CC1
54 | 663 | Cc1noc(C)c1S(=O)(=O)N1CC(c2nnc(-c3ccncc3)o2)C2(CCOCC2)C1 (stereo unspecified)
55 | 930 | O=C(COCc1nnc(C(=O)Nc2cccc(Cl)c2)s1)NCCc1c[nH]c2ccccc12
56 | 1010 | Cc1nc(-c2cn(C(C)C)c3ncccc23)sc1C(=O)Nc1ccc2c(c1)OCCO2
57 | 964 | Cc1cccc(C)c1NS(=O)(=O)c1ccc(-c2c(C)noc2C)cc1
58 | 761 | O=C(C1=NN(Cc2ccc(F)cc2)c2ccccc2S1(=O)=O)N1CCOCC1
59 | 852 | COc1ccc(-c2noc(CNC(=O)Nc3ccc(Cl)cc3)n2)cc1OC
60 | 813 | Cc1ccccc1Cn1nc2ccc(S(=O)(=O)N3CCCCC3)cn2c1=O
61 | 689 | CCOC(=O)Cc1csc(NC(=O)C2CC(=O)N(c3n[nH]c4ccccc34)C2)n1 (stereo unspecified)
62 | 635 | Cc1ccc2oc(C(=O)NCc3ccc4c(c3)OCO4)cc2n1
63 | 719 | Fc1ccc(CSc2ncnc3nc[nH]c23)cc1
64 | 767 | O=C(Nc1nnc(C2CC(=O)N(c3ccccc3)C2)o1)c1cccc(Cl)c1 (stereo unspecified)
65 | 599 | CCn1cnnc1C1CCN(C(=O)C2(c3ccc(OC)cc3)CC2)CC1
66 | 722 | C[C@H](NC[C@H](O)CP(=O)(O)Cc1ccccc1)c1ccc(Cl)c(Cl)c1

Row | RP-LC retention time [s] | Structure (SMILES)
67 | 1010 | COc1ccc(-c2nnc(Cc3nc(-c4ccc(C)cc4)no3)o2)cc1
68 | 673 | COc1ccc(N2CCN(C(=O)COc3ccc(NC(=O)C4CC4)cn3)CC2)cc1
69 | 796 | O=C(NC1CCN(c2cc(-c3cccs3)[nH]n2)C1)c1cccc(Br)c1 (stereo unspecified)
70 | 595 | O=C(NCCCN1CCCC1)c1c2c(nc3ccccc13)C(=O)N(C1CCCCC1)C2
71 | 674 | COc1ccc(N2CCN(C(=O)c3cc4c(s3)CCN(C(C)=O)C4)CC2)cc1
72 | 847 | Cc1cc(-c2cc(S(=O)(=O)NCc3ccccc3Cl)c(C)s2)n[nH]1
73 | 852 | COc1ccc(-c2nc3cnc(Br)cn3c2Nc2ccc(OC)c(OC)c2)cc1
74 | 628 | O=C(Nc1ccc2[nH]nc(-c3ccncc3)c2c1)[C@@H]1CCN(CC(=O)N2CCN(c3ccc(-c4ncccn4)cc3)CC2)C1
75 | 695 | O=C(CCCS(=O)(=O)c1ccc(Cl)cc1)Nc1ccc([N+](=O)[O-])cc1
76 | 610 | COc1cc(C(=O)NCC(c2ccc3c(c2)OCO3)N2CCN(C)CC2)cc(OC)c1OC (stereo unspecified)
77 | 641 | O=C(NCCc1c[nH]c2ccccc12)c1nc[nH]c1C(=O)NCc1ccccn1
78 | 726 | Cc1ccc(C(=O)NC2CCN(c3cc(-c4cccs4)[nH]n3)C2)cc1C (stereo unspecified)
79 | 732 | CNC(=O)c1noc([C@@H]2CC(F)(F)CN2Cc2ccco2)n1
80 | 930 | O=S(=O)(Nc1cc(F)cc(F)c1)c1ccc(-c2nnc(C3CCC3)o2)o1
81 | 766 | O=C(CCc1nc(CSc2nnc(-c3ccccc3)o2)no1)Nc1nccs1
82 | 576 | CN1CCN(C(=O)c2cc3n(n2)CC(C)(C(=O)NCc2ccc(F)cc2)N(C)C3=O)CC1 (stereo unspecified)
83 | 558 | CN1CCCc2cc(C(CNC(=O)C(=O)NCCN3CCOCC3)N3CCCCC3)ccc21 (stereo unspecified)
84 | 555 | CC1CCN(c2nc(NCCN3CCOCC3)nc(N3CC4CC(C3)c3cccc(=O)n3C4)n2)CC1 (stereo unspecified)
85 | 1240 | CCOC(=O)C1CCN(c2ncccc2-c2nnc(-c3ccc(Cl)cc3)o2)CC1
86 | 661 | COCc1nc(-c2ccc(OC3CN(Cc4cccs4)C3)cc2)no1
